Laboratory results as given in patent US5084453A, “1-carboxy-1-vinyloxyimino aminothiazole cephalosporin derivatives” (priority 1988, dated 1992).
Like-named read-outs stand apart in the source and are kept apart here.

Experiments:
Test in all cases: in vitro antibacterial activity, agar plate dilution method
Assay type in all cases: cell-based
[1] = test system: A. calcoaceticus No. 4; conditions: Acinetobacter calcoaceticus
Method: (§1) Now, the in vitro antibacterial activities of the compounds of the present invention against various microorganisms, were measured by the following agar plate dilution method.
(§2) One platinum loopfull of each test microorganism incubated overnight in Mueller Hinton broth, was inoculated to Mueller Hinton agar (MH agaer). Such culture media containing various antibiotics in various concentrations were prepared. After incubation at 37° C. for 16 hours, the minimum inhibitory concentrations (MIC μg/ml) were measured.

[2] = test system: E. cloacae 963; conditions: Enterobacter cloacae, 963, 16 h
Method: as §1, §2

[3] = test system: E. cloacae Nek 39*; conditions: Enterobacter cloacae, 16 h
Method: as §1, §2

[4] = test system: E. coli CSH(RE45)*; conditions: Escherichia coli; 10^6 CFU/ml; β-Lactamase-producing strain; 37° C., 16 hours; read-out: MIC
Method: as §1, §2

[5] = test system: E. coli CSH2(RK1)*; conditions: Escherichia coli, 16 h
Method: as §1, §2

[6] = test system: E. coli GN5482*; conditions: Escherichia coli, GN5482, 16 h
Method: as §1, §2

[7] = test system: E. coli NIHJ JC2; conditions: Escherichia coli, NIHJJC2; 10^6 CFU/ml; Mueller Hinton agar, 37° C., 16 hours; read-out: MIC
Method: as §1, §2

[8] = test system: K. oxytoca GN10650*; conditions: Klebsiella oxytoca, GN10650, 16 h
Method: as §1, §2

[9] = test system: K. pneumoniae No. 42*; conditions: Klebsiella pneumoniae
Method: as §1, §2

[10] = test system: K. pneumoniae PC1-602; conditions: Klebsiella pneumoniae, PC1602; 10^6 CFU/ml; Mueller Hinton agar, 37° C., 16 hours; read-out: MIC
Method: as §1, §2

[11] = test system: M. morganii GN5407*; conditions: Morganella morganii
Method: as §1, §2

[12] = test system: P. vulgaris HX-19; conditions: Proteus vulgaris, HX19; 10^6 CFU/ml; Mueller Hinton agar, 37° C., 16 hours; read-out: MIC
Method: as §1, §2

[13] = test system: P. vulgaris No. 33*; conditions: Proteus vulgaris, 16 h
Method: as §1, §2

[14] = test system: Ps. aeruginosa AK 109; conditions: Pseudomonas aeruginosa
Method: as §1, §2

[15] = test system: Ps. aeruginosa AKR17; conditions: Pseudomonas aeruginosa
Method: as §1, §2

[16] = test system: Ps. aeruginosa IFO3445; conditions: Pseudomonas aeruginosa, IFO3445, 16 h
Method: as §1, §2

[17] = test system: Ps. cepacia 23
Method: as §1, §2

[18] = test system: S. aureus 209P NIHJ-JC1; conditions: Staphylococcus aureus
Method: as §1, §2

[19] = test system: S. marcescens IAM 1184; conditions: Serratia marcescens
Method: as §1, §2

[20] = test system: S. marcescens No. 16-2*; conditions: Serratia marcescens, 16 h
Method: as §1, §2

[21] = NO.4, 10^6 CFU/ml, Mueller Hinton agar, 37° C., 16 hours, read-out: MIC
[22] = 10^6 CFU/ml, β-Lactamase-producing strain, 37° C., 16 hours, read-out: MIC
[23] = AKR17, 10^6 CFU/ml, Mueller Hinton agar, 37° C., 16 hours, read-out: MIC
[24] = IAM1184, 10^6 CFU/ml, Mueller Hinton agar, 37° C., 16 hours, read-out: MIC
[25] = Burkholderia cepacia, 23, 10^6 CFU/ml, Mueller Hinton agar, 37° C., 16 hours, read-out: MIC

Row | SMILES | MIC [1, 21] | MIC [2] | MIC [3] | MIC [4] | MIC [5] | MIC [6] | MIC [7] | MIC [8] | MIC [9, 22] | MIC [10] | MIC [12] | MIC [13] | MIC ([14]; AK109, 16 h) | MIC [15, 23] | MIC [16] | MIC ([18]; 16 h) | MIC [19, 24] | MIC [20] | MIC ([11]; GN5407, 16 h) | MIC [17, 25] | other results
1 | C=C(O/N=C(\C(=O)N[C@@H]1C(=O)N2C(C(=O)O)=C(CSc3ncc(-c4ccc(O)c(O)c4)o3)CS[C@H]12)c1csc(N)n1)C(=O)O [Example 14, disodium 7β-[2-(2-aminothiazol-4-yl)-2-(1-carboxylato-1-vinyloxyimino)acetamido]-3-[5-(3,4-dihydroxyphenyl)oxazol-2-yl]thiomethyl-3-cephem-4-carboxylate (syn-isomer)] | 0.2 µg/mL | 0.39 µg/mL | 0.1 µg/mL | 0.025 µg/mL | 0.0125 µg/mL | 1.56 µg/mL | 0.78 µg/mL | 0.1 µg/mL | 0.05 µg/mL | < 0.006 µg/mL | < 0.006 µg/mL | 0.025 µg/mL | 0.78 µg/mL | 3.12 µg/mL | 0.78 µg/mL | 6.25 µg/mL | 0.05 µg/mL | 0.39 µg/mL | – | – | MIC ([11]; GN5407, 10^6 CFU/ml, β-Lactamase-producing strain, 37° C., 16 hours, read-out: MIC): 0.05 µg/mL; MIC ([17]; Burkholderia cepacia, 23, 16 h): 0.0125 µg/mL
2 | C=C(O/N=C(\C(=O)N[C@@H]1C(=O)N2C(C(=O)[O-])=C(C[n+]3cccc(NC=O)c3)CS[C@H]12)c1csc(N)n1)C(=O)O [Example 10, sodium 7β-[2-(2-aminothiazol-4-yl)-2-(1-carboxylato-1-vinyloxyimino)acetamido]-3-(3-formylamino-1-pyridinio)methyl-3-cephem-4-carboxylate (syn-isomer)] | 3.12 µg/mL | 0.025 µg/mL | 0.39 µg/mL | 0.0125 µg/mL | 0.0125 µg/mL | 0.1 µg/mL | 0.0125 µg/mL | 0.05 µg/mL | – | < 0.006 µg/mL | < 0.006 µg/mL | 0.0125 µg/mL | – | > 100 µg/mL | 0.78 µg/mL | 1.56 µg/mL | < 0.006 µg/mL | 1.56 µg/mL | 0.0125 µg/mL | 3.12 µg/mL | MIC ([9]; 16 h): 0.05 µg/mL; MIC ([14]; AK109, 10^6 CFU/ml, Mueller Hinton agar, 37° C., 16 hours, read-out: MIC): 3.12 µg/mL
3 | C=C(O/N=C(\C(=O)N[C@@H]1C(=O)N2C(C(=O)O)=C(CSc3nnc(-c4ccc(O)c(O)c4)s3)CS[C@H]12)c1csc(N)n1)C(=O)O [Example 13, disodium 7β-[2-(2-aminothiazol-4-yl)-2-(1-carboxylato-1-vinyloxyimino)acetamido]-3-[5-(3,4-dihydroxyphenyl)-1,3,4-thiadiazol-2-yl]thiomethyl-3-cephem-4-carboxylate (syn-isomer)] | – | 0.05 µg/mL | 0.05 µg/mL | < 0.006 µg/mL | < 0.006 µg/mL | 0.2 µg/mL | 0.2 µg/mL | 0.025 µg/mL | 0.0125 µg/mL | 0.0125 µg/mL | < 0.006 µg/mL | 0.025 µg/mL | 0.1 µg/mL | – | 0.78 µg/mL | – | – | 0.05 µg/mL | 0.1 µg/mL | < 0.006 µg/mL | MIC ([1]; NO.4, 16 h): 0.1 µg/mL; MIC ([15]; AKR17, 16 h): 1.56 µg/mL; MIC ([18]; 10^6 CFU/ml, Mueller Hinton agar, 37° C., 16 hours, read-out: MIC): 3.12 µg/mL; MIC ([19]; IAM1184, 16 h): 0.025 µg/mL
